Results taken from patent publication US20180289665A1, “USE OF CANNABIS TO TREAT MIGRAINE” (ONE WORLD CANNABIS LTD, priority 2014, published 2018).

How the values were obtained:
[1] = test system: patients with acute migraine attack; experiment: Clinical trial of THC vs ibuprofen in acute migraine attack (Example 2); format: in vivo, human; details: primary endpoint; assumption for sample size
Description: To assess the effect of Tetrahydrocannabinol (THC) or a derivative thereof vs. NSAIDs (such as ibuprofen) in relieving acute migraine attack.
This example provides a prospective randomized double-blind, placebo-controlled trial.
The study population includes patients presenting with chief complaint an acute migraine attack to the emergency department (ED) at Soroka University Medical Center.
The study population is randomized into “double dummy” design (ratio 1:1): • Group 1—received Tetrahydrocannabinol (THC) and placebo tab ibuprofen. • Group 2—received placebo Tetrahydrocannabinol (THC) drops and tab ibuprofen.
The THC study doses include dose rages of between about 5 mg and up to 50 mg THC, preferably dose ranges of between about 10 mg THC and about 30 mg THC.
According to one embodiment, an ethanol extracted cannabis oil dissolved in a vegetable oil (with a distinct taste to differentiate it from the placebo oil) is used in this study. The aforementioned cannabis composition comprises THC dose range of about 20 mg to about 40 mg.
Headache and nausea severity is assessed using a 4-point pain severity scale (score 0-3) as detailed above. […] Additionally, THC blood levels are measured at about 30, 60 minutes and 2 hours. […]

[2] = test system: dural blood vessel dilation; details: dilation from electrical stimulation, calcitonin gene-related peptide, nitrous oxide and capsaicin; reversed by a cannabinoid antagonist; cited from earlier work

Structure (SMILES)	expected treatment failure rate [1] [%]	dural blood vessel dilation [2]
CCCCCc1cc(O)c2c(c1)OC(C)(C)[C@@H]1CCC(C)=C[C@@H]21 [THC, Δ9-Tetrahydrocannabinol]	40	–
CCCCC/C=C\C/C=C\C/C=C\C/C=C\CCCC(=O)NCCO [AEA, N-arachidonoylethanolamine]	–	inhibit
